Experimental data taken from patent publication US6943278B2, “Transgenic Drosophila having a disrupted Parkin gene and exhibits reduced climbing ability” (GenExel, Inc., priority 2002, dated 2005).

Columns and labels:
Type in all cases: in vivo, Drosophila
[1] = test system: Dpark^2 parkin mutant flies; experiment: rescue of defective climbing response of Dpark^2 mutant flies; details: for % climbing abilities, Dpark2/Dpark2: Dpark2/Dpark2 flies fed 1 mM compound on dry yeast for 10 days, relative to unfed wild type control; for effect on climbing response (in words): Dpark^2 flies fed 1 mM compound for 10 days
Procedure: (§1) parkin mutant flies older than 3-4 days after eclosion moved extremely slowly or not at all, remaining on the bottom of the culture vials. To quantify the locomotor behavioral defects of parkin mutant flies, the climbing ability of the mutants was examined. To do so, fifteen flies were placed in a plastic vial, and gently tapped to the bottom of the vial. The number of flies at the top of the vial was counted after 18 seconds of climbing. Ten trials were performed for each time point. The trial numbers were then averaged, and the resulting mean was normalized by the mean value of 1-day-old wild type. These used as the climbing scores for each single group of flies on a particular day. The experiment was repeated five times, with independently derived transgenic lines. The climbing score for five repeated experiments was then averaged, and a group mean and standard error were obtained. As previously reported (Ganetzky and Flanagan, Exp. Gerontol., 13:189 (1978); Le Bourg and Lints, Gerontology 8:59 (1992); Feany and Bender, 2000; Pendleton et al., J. Pharmacol. Exp. Ther. 300:91 (2002)), wild type flies rapidly climb to the top of a vial when tapped to the bottom, and have a strong tendency to remain at the top. However, as the flies get older, they no longer climb to the top of the vial, in other words they lose climbing ability (Ganetzky and Flanagan, 1978; Le Bourg and Lints, 1992; Feany and Bender, 2000; Pendleton et al., 2002).
(§2) A compound was screened for its ability to rescue the defective climbing response of Dpark^1 and Dpark^2 mutants. Flies were reared and crossed on Caltech medium (Ashbumer, Drosophila, Cold Spring Harbor, N.Y.: Cold Spring Harbor Laboratory Press (1989)) at 25° C. Wild type or parkin mutant flies were fed either L-DOPA or D-DOPA for 10 days by placing dry yeast that was soaked with 0.3 mL of either 1 mM L-DOPA or 1 mM D-DOPA on the bottom of the vial.

wild type flies = experiment: climbing ability of wild type flies fed D- or L-dopa; details: for effect on climbing response (in words): wild type flies fed 1 mM compound for 10 days; for % climbing abilities, WT: wild type flies fed 1 mM compound on dry yeast for 10 days
Procedure: as §1, §2

[2] = test system: Dpark^1 parkin mutant flies; experiment: rescue of defective climbing response of Dpark^1 mutant flies; details: for % climbing abilities, Dpark1/Dpark1: Dpark1/Dpark1 flies fed 1 mM compound on dry yeast for 10 days, relative to unfed wild type control; for effect on climbing response (in words): Dpark^1 flies fed 1 mM compound for 10 days
Procedure: as §1, §2

Row | SMILES | % climbing abilities, Dpark2/Dpark2 [1] | % climbing abilities, Dpark2/Dpark2 ([1]; listed as L-DOPA) | effect on climbing response (in words) [1] | effect on climbing response (in words) (wild type flies) | % climbing abilities, WT (wild type flies) | % climbing abilities, Dpark1/Dpark1 [2] | % climbing abilities, Dpark1/Dpark1 ([2]; listed as L-DOPA) | effect on climbing response (in words) [2]
1 | N[C@@H](Cc1ccc(O)c(O)c1)C(=O)O [L-dopa, L-DOPA] | 68.51 ± 10.09% | ~70% | significantly restored the climbing response | Neither L-DOPA nor D-DOPA was effective | 100.59 ± 2.73% | 68.20 ± 6.06% | ~70% | significantly restored the climbing response
2 | N[C@H](Cc1ccc(O)c(O)c1)C(=O)O [D-dopa, D-DOPA] | 37.75 ± 2.44% | – | not effective | Neither L-DOPA nor D-DOPA was effective | 101.90 ± 2.72% | 33.221 ± 1.87% | – | not effective
